Test results as given in patent US20110190269A1, “GAMMA SECRETASE MODULATORS” (priority 2010, published 2011).

These compounds were tested on γ-secretase (assay: Cellular γ-secretase assay (inhibition of Aβ42 secretion)). Details: human neuroglioma H4 cells overexpressing human APP, 22 hrs incubation.
Assay type: cell-based
Protocol: Human neuroglioma H4 cells overexpressing human APP were plated at 30,000 cells/well/[…] in 96-well plates in IMDM media containing 10% FCS, […] Hygromycin B and incubated for 2 h at 37° C., 5% CO2 prior to adding test compounds.
Compounds for testing were dissolved in 100% Me2SO yielding in a 10 mM stock solution. Typically […] of these solutions were further diluted in 1000 μl of IMDM media (w/o FCS). Subsequent 1:1 dilutions gave a ten point dose response curve. 100 μl of each dilution was added to the cells in 96-well plates. Appropriate controls using vehicle only and reference compound were applied to this assay. The final concentration of Me2S0 was 0.4%.
After incubation for 22 hrs at 37° C., 5% CO2, 50 μl supernatant was transferred into round-bottom 96-well polypropylene plates for detection of Aβ42. 50 μl assay buffer (50 mM Tris/Cl, pH 7.4, 60 mM NaCl, 0.5% BSA, 1% TWEEN 20) was added to the wells followed by the addition of 100 μl of detection antibody (ruthenylated BAP15 0.0625 μg/ml in assay buffer). 50 μl of a premix of capture antibody (biotinylated 6E10 antibody, 1 μg/ml) and Steptavidin-coated magnetic beads (Dynal M-280, 0.125 mg/ml) were preincubated for 1 hr at room temperature before adding the assay plates. Assay plates were incubated on a shaker for 3 hrs at room temperature and finally read in the Bioveris M8 Analyser according to the manufacturer's instructions (Bioveris).
IC50 values for inhibition of Aβ42 secretion were calculated by nonlinear regression fit analysis using XLfit 4.0 software (IDBS).

EC50	SMILES
330 nM	COc1cc(Nc2nc3n(n2)CCCC3c2ccc(F)cc2)ccc1-n1cnc(C)c1 (racemic) [Example 1, [8-(4-Fluoro-phenyl)-5,6,7,8-tetrahydro-[1,2,4]triazolo[1,5-a]pyridin-2-yl]-[3-methoxy-4-(4-methyl-imidazol-1-yl)-phenyl]-amine]
440 nM	COc1cc(Nc2nc3n(n2)CCCC3c2ccc(F)cc2)ccc1-n1cnc(C)c1 (single isomer, unassigned) [Example 51]
280 nM	COc1cc(Nc2nc3n(n2)CCCC3c2ccc(F)cc2)ccc1-n1cnc(C)c1 (single isomer, unassigned) [Example 52]
320 nM	COc1cc(Nc2nc3n(n2)C(c2ccc(F)cc2)CCC3)ccc1-n1cnc(C)c1 (stereo not drawn) [Example 2, [5-(4-Fluoro-phenyl)-5,6,7,8-tetrahydro-[1,2,4]triazolo[1,5-a]pyridin-2-yl]-[3-methoxy-4-(4-methyl-imidazol-1-yl)-phenyl]-amine]
3350 nM	COc1cccn2nc(Nc3ccc(-n4cnc(C)c4)c(C#N)c3)nc12 [Example 3, 5-(8-Methoxy-[1,2,4]triazolo[1,5-a]pyridin-2-ylamino)-2-(4-methyl-imidazol-1-yl)-benzonitrile]
1280 nM	CCCc1nc(C)cc2nc(Nc3ccc(-n4cnc(C)c4)c(C#N)c3)nn12 [Example 4, 2-(4-Methyl-imidazol-1-yl)-5-(7-methyl-5-propyl-[1,2,4]triazolo[1,5-c]pyrimidin-2-ylamino)-benzonitrile]
90 nM	COc1ccc(-c2ccccc2)n2nc(Nc3ccc(-n4cnc(C)c4)c(C#N)c3)nc12 [Example 5, 5-(8-Methoxy-5-phenyl-[1,2,4]triazolo[1,5-a]pyridin-2-ylamino)-2-(4-methyl-imidazol-1-yl)-benzonitrile]
120 nM	COc1cc(Nc2nc3cccc(-c4ccccc4)n3n2)ccc1-n1cnc(C)c1 [Example 6, [3-Methoxy-4-(4-methyl-imidazol-1-yl)-phenyl]-(5-phenyl-[1,2,4]triazolo[1,5-a]pyridin-2-yl)-amine]
930 nM	COc1cc(Nc2nc3c(OC)cccn3n2)ccc1-n1cnc(C)c1 [Example 7, [3-Methoxy-4-(4-methyl-imidazol-1-yl)-phenyl]-(8-methoxy-[1,2,4]triazolo[1,5-a]pyridin-2-yl)-amine]
50 nM	COc1cc(Nc2nc3cccc(-c4ccc(F)cc4)n3n2)ccc1-n1cnc(C)c1 [Example 8, [5-(4-Fluoro-phenyl)-[1,2,4]triazolo[1,5-a]pyridin-2-yl]-[3-methoxy-4-(4-methyl-imidazol-1-yl)-phenyl]-amine]
200 nM	COc1cc(Nc2nc3cncc(-c4ccc(F)cc4)n3n2)ccc1-n1cnc(C)c1 [Example 9, [5-(4-Fluoro-phenyl)-[1,2,4]triazolo[1,5-a]pyrazin-2-yl]-[3-methoxy-4-(4-methyl-imidazol-1-yl)-phenyl]-amine]
60 nM	COc1cc(Nc2nc3c(-c4ccc(F)cc4)cccn3n2)ccc1-n1cnc(C)c1 [Example 10, [8-(4-Fluoro-phenyl)-[1,2,4]triazolo[1,5-a]pyridin-2-yl]-[3-methoxy-4-(4-methyl-imidazol-1-yl)-phenyl]-amine]
580 nM	COc1cc(Nc2nc3c(-c4ccc(F)cc4)nccn3n2)ccc1-n1cnc(C)c1 [Example 11, [8-(4-Fluoro-phenyl)-[1,2,4]triazolo[1,5-a]pyrazin-2-yl]-[3-methoxy-4-(4-methyl-imidazol-1-yl)-phenyl]-amine]
400 nM	COc1cc(Nc2nc3cccc(N4CCCC4)n3n2)ccc1-n1cnc(C)c1 [Example 12, [3-Methoxy-4-(4-methyl-imidazol-1-yl)-phenyl]-(5-pyrrolidin-1-yl-[1,2,4]triazolo[1,5-a]pyridin-2-yl)-amine]
100 nM	COc1cc(Nc2nc3cncc(-c4ccccc4)n3n2)ccc1-n1cnc(C)c1 [Example 13, [3-Methoxy-4-(4-methyl-imidazol-1-yl)-phenyl]-(5-phenyl-[1,2,4]triazolo[1,5-a]pyrazin-2-yl)-amine]
